# Test results taken from EP4007561B1, “PREVENTION AND REDUCTION OF CORNIFICATION DISORDERS AND RELATED COSMETIC AGENTS” (Merck Patent GmbH, priority 2019, dated 2021).
# “And” between values parts separate entries of the source, which are not always exact repeats. Equal values may be shown once.
# What was measured:
# Assay type in all cases: cell-based, human
# skin explants = assay: Protein oxidation (carbonylation) by differential in-gel electrophoresis proteomics, unidentified spots and overall spot pattern; conditions: for Average normalized volume (oxidation level): UV-A + Ectoine 0.2%, UV-A 365 nm, 480J/cm2, 40 min
# Experimental: To assess and quantify protein oxidation (carbonylation) by differential in-gel electrophoresis proteomics approach evidencing differentially oxidized protein spots upon UV-A (365 nm) irradiation on skin explants in the presence or absence of ectoine (0,2%) (source Merck KGaA, Darmstadt, Germany).
# During the study human explants are irradiated under UVA (LED source; sources and chamber manufactured for custom needs by UWAVE;France, peak at 365nm at a 480J/cm2 dose during 40 min). A solution of N-acetylcysteine (Reference A7250, Sigma-Aldrich) is used as positive control of protection. Just after irradiation, explants are snap-frozen and proteins extracted for analyses.
# Protein extraction from explants is performed using a commercial kit (Total Protein Extraction Kit, Merck KGaA) protocol for skin explants. Extracted proteins are quantified by the Bradford method and split into equal amounts for analyses. The samples are analyzed for carbonylated proteins after they are labeled with fluorescent probes functionalized to selectively react with carbonyl groups. The fluorescent labeling of carbonyls is obtained by the reaction with amine-N-oxyl functionalized fluorophore (custom synthetized) and formation of a stable covalent bond.
# Thus, the samples are labeled with two different fluorescent dyes characterized by different excitation and emission wavelength peaks: CF®555 (Source :Biotium) is a red fluorescent dye spectrally similar to Cy3® and Alexa Fluor® 555 (λex547nm/λem572nm) and CF®647 (Source: Biotium) CF®647is a far-red fluorescent dye spectrally similar to Cy®5 and Alexa Fluor® 647 (λex639nm/λem668nm). This approach allows to load two distinct labeled samples in the same bi-dimensional electrophoresis gel and to analyze them independently.
# Moreover, 50 µg of proteins of each sample are pooled and labeled a third fluorescent probe CF®488 (Source: Biotium) (λex483nm/λem508nm). CF®488 is a green fluorescent dye spectrally similar to Alexa Fluor® 488. CF®488 is and used as Internal Standard (IS) for inter-gel normalization. After specific fluorescent labeling, carbonylated proteins are separated by bi-dimensional electrophoresis and the fluorescence images are obtained for each specifically labeled sample.
# The first dimension of protein separation (isoelectric focusing) is performed using gel-strips with nonlinear pH 3 to 11 while the second step of electrophoresis separation is conducted by SDS-PAGE using 4%-20% w/v gradient polyacrylamide gels. The digital acquisition of gel images is performed by using the «Ettan DIGE imager» system (GE Healthcare). Data treatment is performed with the software «Progenesis SameSpots» (Nonlinear Dynamics, UK).
# Carbonylated proteins are presented as superposed images of two independent fluorescent signals (in green or red) and the coincident proteins with equivalent intensity result in yellow spots by superposition of the two dye colors used for their labeling (superposition of green and red colors). The carbonylated proteins that are present in a different level in the two samples on gel are visualized as red or green spots depending by the experimental group as independent labeling of each sample.
# More than 200 spots are detected per sample, with an increase in number and intensity in the samples of the irradiated group (UV-A). These spots are localized between 37 kDa and 75 kDa. The fluorescence signal of each spot is normalized over the internal standard spot signal for each gel. The alignment of spots from different gels and the analysis of variance of their carbonylation levels in different samples and in different groups are performed by using the software Progenesis Samespots.
# Filaggrin = assay: Fluorescence imaging (immunostaining) of protein expression on skin explants ex vivo; conditions: ectoine 0.2% w/v, 24 hours prior to UV-A irradiation (365 nm, 480J/cm^2, 40 minutes); Figure 2
# Experimental: (§1) To evidence changes at the expression level of a selected pool of proteins on skin explants (ex vivo), treated or not with ectoine 0.2% (source Merck KGaA. Darmstadt, Germany) and exposed or not to UV-A irradiation: At day 0 (D0), the skin explants from a donor (phototype III, ref. EXP001100F022) are kept alive in calcium-free DMEM (Dulbecco's modified Eagle medium), with 10% FCS (Fetal calf serum), at 37°C and humid atmosphere, supplemented with 5% CO2. On day 1 (D1), ectoine 0.2% w/v) is obtained by dilution in H2O. The experimental groups are incubated for 24 hours with the active prior to irradiation.
# (§2) On day 2 (D2), a stress induced by irradiation with UV-A (LED source, peak at 365 nm at a 480J/cm^2 during 40 minutes) is applied to the explants.
# (§3) Skin explants are previously treated or not with ectoine and irradiated or not with UV-A, cryo-preserved in OCT (an embedding resin (Shandon Cryomatrix; Thermo Scientific, Reference 6769006)), flash-frozen in isopetan/liquid nitrogen and stored at -80 °C.
# (§4) Tissue sections of 5 µm are cut by using a cryotome, air-dried at room temperature (RT) for 15 minutes and fixed with a mix of 95% ethanol/5% acetic acid for 5 minutes. Fixed tissues are then saturated with 5% BSA (bovine serum albumin) in PBS (Phosphate Buffered Saline; 1X, pH 7.4) at RT. […]
# LAMP2A = assay: as above; conditions: ectoine 0.2% w/v; basal conditions (without UV-A); Figure 3
# Experimental: as §1, §2, §3, §4
structure (smiles),measurement,setting,value
"CC1=N[C@H](C(=O)O)CCN1 [Ectoine, (S)-1,4,5,6-tetrahydro-2-methyl-4-pyrimidincarboxylic acid]",Average normalized volume (oxidation level),"skin explants; Spot 100 (protein not identified), n=4",→ 1.129
same,Average normalized volume (oxidation level),"skin explants; Spot 203 (protein not identified), n=4",→ 1.062
same,Average normalized volume (oxidation level),"skin explants; Spot 230 (protein not identified), n=4",→ 1.433
same,level of oxidation of protein spots in the absence of irradiation,"skin explants; basal conditions, no UV-A, spots different from those protected from UV-A stress (except spot 100)",decreases the level of oxidation of ten protein spots
same,"protein carbonylation after ectoine treatment, spots 100, 230, 203","skin explants; ectoine 0.2%, UV-A irradiation, n=4",carbonylation is not reduced
same,protection of protein spots from UV-A induced oxidation (carbonylation),"skin explants; ectoine 0.2%, of 8 spots increased by UV-A, spots 186, 133, 184, 185, 206, n=4",five spots are detected as protected and 5 proteins exhibit reduced protein carbonylation and prevents protein carbonylation significantly
same,Filaggrin expression level,Filaggrin,prevents this decrease of Filaggrin
same,LAMP2A expression,LAMP2A,increases LAMP2A expression
